Assay results from US11667678B2, “Peptides for the treatment of COVID-19” (priority 2019, dated 2023).
Peptide text beside a SMILES is read from it.

Columns and labels:
control mice = conditions: mouse, in vivo
[1] = target: ACE2:SARS-CoV-2 spike S1 binding (UniProt P0DTC2+Q9BYF1)
[2] = system: SARS-CoV-2 spike S1-intoxicated C57/BL6 mice; conditions: mouse, in vivo
[3] = system: human A549 lung cells stimulated with recombinant SARS-CoV-2 spike S1; conditions: 'See herein and Paidi et al.'; cited from earlier work
[4] = system: human A549 lung cells stimulated with recombinant SARS-CoV-2 spike S1; assay type: cell-based
[5] = system: human A549 lung cells stimulated with poly IC; assay type: cell-based
[6] = system: human A549 lung cells stimulated with HIV-1 Tat; assay type: cell-based
[7] = system: human A549 lung cells stimulated with bacterial flagellin; assay type: cell-based
[8] = system: SARS-CoV-2 spike S1-intoxicated C57/BL6 mice; conditions: mouse, in vivo; remark: listed apart in the source

Row | Compound | drug-related side effect (hair loss, appetite loss, weight loss, untoward infection and irritation) (control mice) | SARS-CoV-2 spike S1 binding to immobilized ACE2 [1] | arrhythmias (ECG heart functions) [2] | fever (body temperature) [2] | infiltration of neutrophils into the lungs [2] | level of proinflammatory molecules in lungs and serum [2] | locomotor activities [2] | serum level of C-reactive protein (CRP) [2] | SARS-CoV-2 spike S1-induced expression of proinflammatory cytokines [3] | SARS-CoV-2 spike S1-mediated induction of IL-6 and IL-1β (mRNA) [4] | expression of IL-6 and IL-1β induced by poly IC [5] | expression of IL-6 and IL-1β induced by HIV-1 Tat [6] | expression of IL-6 and IL-1β induced by flagellin [7] | body temperature (fever) [8] | level of IL-6 mRNA and protein as well as IL-1β mRNA in lungs [8] | level of serum IL-6 [8] | lung neutrophil infiltration [8]
1 | CC(C)[C@H](NC(=O)CNC(=O)[C@H](CC(N)=O)NC(=O)[C@@H](N)[C@@H](C)O)C(=O)NCC(=O)N[C@@H](Cc1ccc(O)cc1)C(=O)O [wtAIDS, TNGVGY] (H-TNGVGY-OH) | did not notice any drug-related side effect |  |  |  |  |  |  |  |  |  |  |  |  |  |  |  | 
2 | EDLFYQ (SPIDAR peptide) [wtSPIDAR] |  | Inhibition | reduced arrhythmias | reduced fever | attenuated | decreased | improved locomotor activities | normalized | markedly suppresses |  |  |  |  |  |  |  | 
3 | TGGVGD (mAIDS peptide) |  | no such inhibition |  |  |  |  |  |  |  | had no effect | had no effect | had no effect | had no effect | no such inhibitory effect | no such inhibitory effect | no such inhibitory effect | no such inhibitory effect
